Test results from patent US20130158112A1, “COMPOSITIONS AND METHODS FOR INHIBITING BETA AMYLOID SECRETION” (priority 2011, published 2013).
Several values for one entry are separate records, joined by “and”; a condition that tells them apart may be missing. Equal values may be shown once. Read-outs that look alike come from different tables or passages of the source.

How the values were obtained:
[1] = test system: Aβ secretion; assay: Secreted total Aβ ELISA in conditioned media of H4βAPP695 wt cells; type: cell-based, human; details: for inhibition at 10 µM / inhibition at 30 µM: Homo sapiens, 24 h, H4βAPP695 wt cells; for inhibition at 10 µM: read-out: Total Aβ (% decrease) 10 μM Mean; for inhibition at 30 µM: read-out: Total Aβ (% decrease) 30 μM Mean; for Aβ secretion inhibiting activity (structure activity summary): in words
In short: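 H4 […] cells stably expressing wild-type βAPP695 (CMV promoter), serum-starved 24 h, then exposed to drug in DMSO or vehicle for 24 h before Aβ in conditioned media was measured. Primary cortical neurons came from E18 APPswe/PSEN1dE9 mice on C57BL/6 background.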

[2] = test system: H4βAPP695 wt cells; details: human, 24 h
[3] = test system: Aβ secretion; assay: PKC inhibitors experiment on Aβ secretion; type: cell-based, human
Experimental: (§1) H4βAPP695 wt cells, a human […] cell line stably transfected with a wtβAPP695 expression vector construct under the control of a CMV promoter (kindly provided by Dr. Chris Eckman from Mayo Clinic, Florida) were cultured as previously described. Twenty-four hours before drug treatment, the media was replaced with serum-free media. Cells were then incubated with drugs (dissolved in DMSO) or vehicle for 24 h for collection of conditioned media and cell lysates. For the PKC inhibitors experiment, three inhibitors were treated 30 min prior to drug challenge. Primary cortical neurons were prepared from embryonic day 18 APP and presenilin 1 (APPswe, PSEN1dE9) transgenic mice on the C57BL/6 genetic background (Jackson Laboratories, strain no. 5864) as previously described. THLE-3 human hepatoma cells (from ATCC) were plated in 24-well plates that were precoated with 10 μg/mL bovine serum albumin, 10 μg/mL fibronectin, and 30 μg/mL bovine type I collagen. The cells were grown in BEGM media (Clonetics) until confluent and treated with drugs at 20 μM for 24 h. This conditioned media was harvested, diluted 1:1 in serum-free medium, and incubated with H4βAPP695 wt cells for 24 h prior to analysis of secreted Aβ, which was compared to the effect of 10 μM drug treatments without prior incubation with the THLE-3 cells. Caco-2 cells (ATCC) were plated in 12-well plates with Transwell inserts (Costar) at 70000 cells per well and grown for 21 days. The media volume of the apical and basal chambers was 0.5 and 1.5 mL, respectively. Transepithelial resistance was measured in each well and found to be >160 Ω/cm^2. Drugs at 40 μM and 20 μg/mL of lucifer yellow were added in serum-free medium to the apical chamber. Four hours later, the basal chamber media was harvested and used to measure lucifer yellow fluorescence to confirm monolayer integrity as well as for treatment of H4βAPP695 wt cells for 24 h prior to analysis of secreted Aβ, which was compared to the effect of direct addition of 10 μM of the corresponding drug.
The tumor promoter phorbal myristate acetate is an activator of protein kinase C (PKC) that has been reported to activate α-secretase activity. Thus, we wanted to determine if protein kinase C inhibitors could block the effect of compound 1 on Aβ secretion.

[4] = test system: cerebral Aβ levels; assay: Oral treatment and cerebral Aβ ELISA in mutant APP/PS1 transgenic mice; type: in vivo, mouse; details: 3 oral gavages, estimated 200 mg/kg in Cremaphor over 1.5 day
Experimental: (§2) In this Example, mutant APP/PS1 transgenic mice were obtained from Dr. Mathias Jucker (R Radde et al. 2006, EMBO Reports 7:940-946). […] The drug was milled into the chow diet (Harlan Teklad #2018) at 4 doses: 0.31, 0.62, 1.25, and 2.5 g/kg. Assuming each mouse eats 4 g of per day, the lowest dose should yield 1.24 mg intake per day, or about 75 mg/kg body weight. Six-week old female transgenic mice were fed ad librium with the chow diet or the diet supplemented with the four drug doses. […] At the end of the study, brains were isolated, and half brains were homogenized in a buffer containing guanidine hydrochloride and SDS. This extract was diluted and used in assays for total protein and an ELISA for Abeta levels. […] There was not a dose response in this study, as the effect appeared to plateau out even at the lowest dose of the drug, 0.31 g/kg diet. This oral diet study supported a prior finding using 3 oral gavages of this drug at an estimated dose of 200 mg/kg body weight delivered in Cremaphor over a 1.5 day period in which we observed a 30% decrease in cerebral Aβ levels (data not shown).

[5] = test system: H4βAPP695 wt cells; assay: Cytotoxicity by total cell protein content (BCA) of H4βAPP695 wt cells; details: cytotoxicity
[6] = test system: THLE-3 human hepatoma cells; assay: Drug activity persistence after incubation with THLE-3 hepatoma cells; type: in vitro ADME; details: for inhibition at 10 µM: Homo sapiens, THLE3, 24 h
Experimental: as §1
To screen for resistance to metabolism, 1 and eight noncytotoxic analogues with >50% Aβ reducing activity (compounds 27, 29, 48, 52, 53, 65, 73, and 76) were incubated at 20 μM for 24 h with or without THLE-3 human hepatoma cells.

[7] = test system: cerebral Aβ levels; assay: In vivo iv administration and cerebral Aβ assay; design: species or system mouse; details: APP/PS1 transgenic mice, iv 100 to 125 mg/kg single dose, 6 h
Experimental: Transgenic mice expressing humanized mutant versions of APP and presenilin 1 (APPswe, PSEN1dE9) on the C57BL/6 genetic background were obtained from Jackson Laboratories (strain no. 5864) and bred to wild type C57BL/6 mice in order to obtain ˜50% transgenic that were used in these studies. These mice develop Aβ senile plaques by 6 months of age. To prepare the drug stock, 17.5 mg of compound 48 was dissolved in 40 μL of DMSO, which was mixed sequentially with 110 μL of Cremophor EL (Sigma) and 900 μL of sterile saline. Two month old female transgenic mice weighing 20-25 g were anesthetized with ketamine/xylazine and injected iv via the retroorbital plexus with vehicle control or with 2.5 mg of compound 48 in 150 μL of the drug stock (yielding a dose of ˜100 to 125 mg/kg). Six h later, the mice were euthanized by CO2 inhalation, the brains were removed, and the cerebellum discarded. One brain hemisphere was homogenized for 45 s on ice using a tissue grinder in 1 mL of solution containing 5 M guanadine HCl, 50 mM Tris (final pH adjusted to 8.3), and 5% protease inhibitor cocktail. Any debris was removed by centrifugation for 10 min at 2000 g. The supernatant was diluted 1:10 in 20% casein blocker in PBS with 5% protease inhibitor cocktail. […] The protein concentration of the brain homogenate was determined with the BCA assay, and the total Aβ levels were normalized to brain protein levels. […]

[8] = test system: Caco-2 cells; assay: Epithelial transcellular transport of drug activity through Caco-2 monolayers; type: in vitro ADME
Experimental: as §1
Monolayer integrity was confirmed by high levels of transcellular electrical resistance (>160 ohms/cm^2) and by transcellular impermeability to the fluorescent dye lucifer yellow. […] The concentration of each compound added to the upper chamber would lead to 10 μM in the lower chamber if equilibration was complete, and thus the activity of the lower chamber media was compared to the activity of 10 μM drug added directly to the H4βAPP695 wt cells. […] Compound 1 crossed the monolayer and the bottom chamber media led to a 27% reduction in Aβ production, yielding 38% of the theoretical activity. The compound with the most activity in the lower chamber was compound 48, which decreased Aβ production by 50%, with 71% of its theoretical activity. […] On the basis of the combined activity data from these last two studies, compound 48 was selected as the lead drug for in vivo study.

[9] = Body weight after one-week oral feeding; type: in vivo, mouse; details: 0.31-2.5 g/kg in chow diet
Experimental: as §2

% remaining Activity ([6]; after 24 h incubation with hepatoma cells) | % theoretical activity ([8]; % of activity passing through Caco-2 monolayer) | Structure (SMILES) | inhibition at 10 µM [1] | inhibition at 30 µM [1] | Aβ secretion inhibiting activity (structure activity summary) [1] | Cell protein (% decrease) 10 μM Mean [2] | Cell protein (% decrease) 30 μM Mean [2] | melting point | effect on basal Aβ secretion ([3]; PKC inhibitor alone) | effect of PKC inhibitor on compound 1 inhibited Aβ secretion ([3]; inhibitor given 30 min prior to compound 1) | decrease in cerebral Aβ levels, oral gavage [4] | Cell protein (% decrease) 10 μM Mean ([5]; 10 μM) | Cell protein (% decrease) 30 μM Mean ([5]; 30 μM) | inhibition at 10 µM ([6]; 10 μM on H4 cells, without preincubation with hepatoma cells, read-out: hepatoma incubation No total Aβ (% decrease)) | inhibition at 10 µM ([6]; 20 μM preincubated 24 h with THLE-3 hepatoma cells, diluted to 10 μM on H4 cells, read-out: hepatoma incubation Yes total Aβ (% decrease)) | reduction in cerebral Aβ levels [7] | inhibition at 10 µM ([8]; Homo sapiens, Caco-2, 10 μM drug alone added directly to H4βAPP695 wt cells, read-out: transcellular transport No total Aβ (% decrease)) | inhibition at up to 10 µM ([8]; Homo sapiens, Caco-2, 4 h, lower chamber media after 4 h on Caco-2 monolayer, 10 μM if in equilibrium, read-out: transcellular transport Yes total Aβ (% decrease)) | effect on body weights [9]
– | – | O=C(NCCSCc1cccc(Cl)c1)c1c([N+](=O)[O-])cccc1[N+](=O)[O-] [Compound 56, N-[2-(3-Chloro-benzylsulfanyl)-ethyl]-2,6-dinitro-benzamide] | 28.8% | 52.9% | not well tolerated | 0.1% | 17.8% | 139 to 140 °C | – | – | – | – | – | – | – | – | – | – | –
– | – | CC(=O)c1c(O)c(C)c(O)c(Cc2c(O)c3c(c(C(=O)/C=C/c4ccccc4)c2O)OC(C)(C)C=C3)c1O [Rottlerin] | – | – | – | – | – | – | reduced Aβ secretion | did not significantly alter the effect of compound 1 | – | – | – | – | – | – | – | – | –
– | – | COc1cccc(CSCCNC(=O)c2c([N+](=O)[O-])cccc2[N+](=O)[O-])c1 [Compound 37, N-[2-(3-Methoxy-benzylsulfanyl)-ethyl]-2,6-dinitro-benzamide] | -14.1% | -2.8% | not well tolerated | 3.7% | −3.8% | 69 to 71 °C | – | – | – | – | – | – | – | – | – | – | –
54% | 71% and 70.8% | Cc1cccc(CSCCNC(=O)c2c(Cl)cccc2Cl)c1 [Compound 48, 2,6-Dichloro-N-[2-(3-methyl-benzylsulfanyl)-ethyl]-benzamide] | – | 85.8% | good activity | – | – | 56 to 57 °C | – | – | 30% | 11.7% | 16.6% | 70.5% | 38% | 39.6% | 70.5% | 50% | no significant effect
